Results as given in PMC12552119, “Tailored structured peptide design with a key-cutting machine approach” (Nature Machine Intelligence, 2025).
Where no end group is shown, it is not given here.

Legend:
[1] = system: E. faecium ATCC 700221 - VRE; format: cell-based; settings: ATCC 700221, 24 h
Experimental: (§1) Fig. 2 Antimicrobial activity and secondary structure of computationally designed peptides. a, Structure prediction of the synthesized peptides. b, Heatmap of the antimicrobial activities of the peptides against 11 clinically relevant pathogens, including four strains resistant to conventional antibiotics. Briefly, 10^6 bacterial cells and serially diluted peptides (1-64 μmol l^−1) were incubated at 37 °C. One day after treatment, the optical density at 600 nm was measured in a microplate reader to evaluate bacterial growth in the presence of the peptides. MIC values in the heatmap are the mode of the replicates in each condition. c–f, Ternary plots showing the percentage of secondary structure for each peptide (at 50 μmol l^−1) in four different solvents: water (c), 60% TFE in water (d), 10 mmol l^−1 SDS in water (e) and 50% methanol (MeOH) in water (f). Secondary structure fractions were calculated using the BeStSel server. […] An error of one column cannot be fully excluded. / Panel b: AT1, AT2, AT3 and all blank cells print no number and are left out.
(§2) Broth microdilution assays[64] were conducted to establish the MIC for each peptide. Peptides were added to untreated polystyrene 96-well microtiter plates and serially diluted twofold in sterile water, ranging from 1 to 64 μmol l^−1. A bacterial inoculum at a concentration of 10^6 CFU ml^−1 in LB medium was then mixed in a 1:1 ratio with the peptide solution. […] Each assay was performed in three independent replicates.

[2] = system: S. aureus ATCC BAA-1556 - MRSA; format: cell-based; settings: ATCC BAA-1556, 24 h
Experimental: as §1, §2

A. baumannii ATCC 19606 = format: cell-based, Acinetobacter baumannii; settings: ATCC 19606, 24 h
Experimental: as §1
(§3) In this study, we used the following pathogenic bacterial strains: A. baumannii ATCC 19606, E. coli AIC221 (E. coli MG1655 phnE_2::FRT (control strain for AIC222)) and E. coli AIC222 (E. coli MG1655 pmrA53 phnE_2::FRT (polymyxin resistant; colistin-resistant strain)), Klebsiella pneumoniae ATCC 13883, Pseudomonas aeruginosa PAO1, P. aeruginosa PA14 and Staphylococcus aureus ATCC 12600. All pathogens were grown in Luria–Bertani (LB) broth and on LB agar. Pseudomonas isolation (P. aeruginosa strains) agar plates were exclusively used in the case of Pseudomonas species. In all the experiments, bacteria were inoculated from one isolated colony and grown overnight (16 h) in liquid medium at 37 °C. On the following day, inocula were diluted 1:100 in fresh media and incubated at 37 °C to mid-logarithmic phase.
as §2

HEK293T cells = test: Cytotoxicity, MTT assay; format: cell-based, human; settings: 24 h
Experimental: Fig. 3 Mechanism of action and cytotoxic activity of designed peptides. a, To assess whether the peptides act on bacterial membranes, all active peptides against A. baumannii American Type Culture Collection (ATCC) 19606 were subjected to outer-membrane permeabilization, and peptides active against A. baumannii ATCC 19606 and vancomycin-resistant E. faecalis ATCC 700802 were tested in cytoplasmic-membrane depolarization assays. b, The fluorescent probe NPN was used to assess membrane permeabilization induced by the tested peptides. c,d, The fluorescent probe DiSC3-5 was used to evaluate membrane depolarization caused by the designed peptides in A. baumannii ATCC 19606 (c) and vancomycin-resistant E. faecalis ATCC 700802 (d). […] All experiments were performed in three independent replicates. Panel a created with BioRender.com. Source data TEXT PRINTED IN THE PICTURE: (e) AT1: CC50 (μmol l^-1), HEK293T cells: 2,758 | (e) AT2: CC50 (μmol l^-1), HEK293T cells: 2 × 10^37 | (e) AT3: CC50 (μmol l^-1), HEK293T cells: 269 | (e) AT4: CC50 (μmol l^-1), HEK293T cells: 3,015 | (e) AT5: CC50 (μmol l^-1), HEK293T cells: 6 × 10^41 | (e) NE1: CC50 (μmol l^-1), HEK293T cells: 6 × 10^33 | (e) NE2: CC50 (μmol l^-1), HEK293T cells: 507 | (e) NE3: CC50 (μmol l^-1), HEK293T cells: 655 | (e) NE4: CC50 (μmol l^-1), HEK293T cells: 2 × 10^32 | (e) NG1: CC50 (μmol l^-1), HEK293T cells: 351 | (e) NG2: CC50 (μmol l^-1), HEK293T cells: 1 × 10^35 | (e) NG3: CC50 (μmol l^-1), HEK293T cells: 2 × 10^46 DOUBTS OF THE COPYIST ABOUT THIS PICTURE: AT2, CC50: small exponent, 37 or 57 / AT5, CC50: small exponent, 41 uncertain / NE1, CC50: small exponent, 33 or 38 / NE4, CC50: small exponent, 32 or 52 / NG2, CC50: small exponent, 35 or 36 / NG3, CC50: small exponent, 46 or 48 […]
HEK293T cells were obtained from the ATCC (CRL-3216). The cells were cultured in high-glucose DMEM supplemented with 1% penicillin and streptomycin (antibiotics) and 10% fetal bovine serum and grown at 37 °C in a humidified atmosphere containing 5% CO2.
One day before the experiment, an aliquot of 100 μl of the cells at 50,000 cells ml^−1 was seeded into each well of the cell-treated 96-well plates used in the experiment (that is, 5,000 cells per well)[45]. The attached HEK293T cells were then exposed to increasing concentrations of the peptides (4–64 μmol l^−1) for 24 h. After the incubation period, we performed the (3-(4,5-dimethylthiazol-2-yl)-2,5-diphenyltetrazolium bromide) tetrazolium reduction assay (MTT assay)[45]. […] The resulting salts were then resuspended in hydrochloric acid (0.04 mol l^−1) in anhydrous isopropanol and quantified by spectrophotometric measurements of absorbance at 570 nm. […]

S. aureus ATCC 12600 = format: cell-based, Staphylococcus aureus; settings: ATCC 12600, 24 h
Experimental: as §1, with “out. […]” for “out.”

K. pneumoniae ATCC 13883 = format: cell-based, Klebsiella pneumoniae; settings: ATCC 13883, 24 h
Experimental: as §1, §3, §2

## FRLAAVLHFHIH [AT4]
[1]
  MIC: 32 µmol/L
[2]
  MIC: 16 µmol/L
A. baumannii ATCC 19606
  MIC: 32 µmol/L
HEK293T cells
  CC50, cytotoxic concentration leading to 50% cell lysis: 3.015 mM
S. aureus ATCC 12600
  MIC: 64 µmol/L
K. pneumoniae ATCC 13883
  MIC: 8 µmol/L
